Source: patent EP1712231A2 (priority 1998, dated 2000)
Marks after values point to notes of the source that are not given here. Values belong to the compound of their own block, whether it stands above or below them.

Tests used:
[1] = Table 1: tipranavir drug-drug interaction potential and routes of elimination of antiretrovirals; details: drug-drug interaction with tipranavir
[2] = Example 4: pharmacokinetic drug-drug interaction of tipranavir SEDDS 1250 mg BID and ritonavir oral solution 200 mg BID; type: in vivo, human
[3] = Study 2: pharmacokinetic drug-drug interaction of tipranavir 600 or 900 mg BID and ritonavir 100-500 mg BID, plasma levels by HPLC; type: in vivo, human; details: for CLPO / Cmin / Css / AUC / Cmax / Tmax: median (range); for half-life / AUC / Cmax / Tmax: both sexes, human, plasma, oral; for half-life: harmonic mean (range), read-out: t½ (converted)
Experimental: Both groups received their assigned dose of tipranavir continuously throughout the study period. […] The pharmacokinetics of tipranavir when coadministered with ritonavir were evaluated and compared with baseline data, while the ritonavir data were compared to historical data. The study was conducted in 19 healthy volunteers (16 males and 3 females) with a mean age of 30 years (range, 19-52 years), height of 177.1 cm (range, 162.6-190.5 cm), and weight of 76.7 kg (range, 57.3-95.0 kg). Eighteen subjects were Caucasian […]. […] Pharmacokinetic analyses were based on those subjects completing the baseline evaluation and at least one period of concomitant drug administration. […] Detection was by UV absorbance at 260 nm. […] Ritonavir and the internal standard (IS) were extracted from human plasma by liquid-liquid extraction with an ethyl acetate mixture.

[4] = Study 1: pharmacokinetic drug-drug interaction of tipranavir 1350 mg BID and ritonavir 500 mg BID, plasma levels by HPLC; type: in vivo, human; details: for CLPO / Cmin / Css: median (range)
Description: Twelve subjects were Caucasian and two were of African descent. Ten subjects completed all aspects of the study. Pharmacokinetic analyses were based on the results obtained in these subjects. […] Detection was by UV absorbance at 260 nm. […] Ritonavir and the internal standard (IS) were extracted from human plasma by liquid-liquid extraction with an ethyl acetate mixture.

[5] = Ritonavir Oral Solution 200mg BID + Tipranavir SEDDS SEC 1250mg BID, median (range), N=21
[6] = ritonavir 200 mg BID + tipranavir 1250 mg BID vs 500-mg twice-daily ritonavir alone
[7] = Ritonavir 500 mg BID + Tipranavir 600 mg BID, N=7
[8] = Ritonavir 500 mg BID + Tipranavir 900 mg BID, N=6
[9] = ritonavir 500 mg BID + tipranavir 600 or 900 mg BID vs ritonavir alone
[10] = Ritonavir 500 mg BID + Tipranavir 1350 mg BID, n=10
[11] = Ritonavir 500 mg BID alone, steady state, n=10
[12] = ritonavir 500 mg BID + tipranavir 1350 mg BID vs ritonavir alone

Potential for Clinically Significant Interaction [1]: High (and unfavorable)
Compound: Cc1c(O)cccc1C(=O)N[C@@H](CSc1ccccc1)[C@H](O)CN1C[C@H]2CCCC[C@H]2C[C@H]1C(=O)NC(C)(C)C [Nelfinavir]

Potential for Clinically Significant Interaction [1]: Low
Compound: Nc1nc(NC2CC2)c2ncn([C@H]3C=C[C@@H](CO)C3)c2n1 [Abacavir]

Potential for Clinically Significant Interaction [1]: Low
Compound: Cc1cn([C@H]2C[C@H](N=[N+]=[N-])[C@@H](CO)O2)c(=O)[nH]c1=O [AZT, zidovudine]

Compound: O=C1Nc2ccc(Cl)cc2[C@@](C#CC2CC2)(C(F)(F)F)O1 [Efavirenz]
Potential for Clinically Significant Interaction [1]: Uncertain (Efavirenz is a possible CYP3A inducer)

CLPO [2, 5]: 25.1 (8.4-73.1)* L/h
Cmin [2, 5]: 0.035 (0.000-0.341)* µg/mL
Css [2, 5]: 0.67 (0.23-1.99)* µg/mL
apparent elimination half-life of ritonavir relative to ritonavir given alone ([2]; ritonavir 200 mg BID + tipranavir 1250 mg BID): decreased
median ritonavir AUC, fold lower [2, 6]: 12 fold
median ritonavir Cmax, fold lower [2, 6]: 10 fold
median ritonavir Cmin, fold lower [2, 6]: 54 fold
CLPO [3, 7]: 19 (11-31) L/h
Cmin [3, 7]: 0.15 (0.08-0.53) µg/mL
Css [3, 7]: 2.3 (1.4-3.7) µg/mL
CLPO [3, 8]: 19 (12-27) L/h
Cmin [3, 8]: 0.15 (0.09-0.62) µg/mL
Css [3, 8]: 1.9 (1.6-3.4) µg/mL
half-life [3, 7]: 1.8 h
AUC [3, 7]: 27000 ng·h/mL
Cmax [3, 7]: 7000 ng/mL
Tmax [3, 7]: 3 h
half-life [3, 8]: 1.8 h
AUC [3, 8]: 26000 ng·h/mL
Cmax [3, 8]: 5800 ng/mL
Tmax [3, 8]: 3 h
decrease in steady-state plasma ritonavir concentrations [3, 9]: ~4 fold
median ritonavir Cmax values, fold lower [3, 9]: more than 2 fold
median ritonavir Cmin values, fold lower [3, 9]: more than 10 fold
CLPO [4, 10]: 26 (17-61) L/h
Cmin [4, 10]: 0.10 (0.04-0.29) µg/mL
Css [4, 10]: 1.6 (0.69-2.50) µg/mL
t½ ([4]; Ritonavir 500 mg BID alone, harmonic mean (range), n=10): 2.9 (2.6-4.4) h
CLPO [4, 11]: 5.1 (3.9-7.8) L/h
Cmin [4, 11]: 1.9 (1.0-3.9) µg/mL
Css [4, 11]: 8.4 (5.3-10.7) µg/mL
half-life ([4]; both sexes, human, plasma, oral, 500 mg, read-out: t½ (converted)): 2.9 h
decrease in mean steady-state ritonavir concentrations [4, 12]: ~5 fold
decrease of median ritonavir Cmax value [4, 12]: 3.8 fold
median ritonavir Cmin concentration, fold lower [4, 12]: more than 10 fold
Compound: CC(C)c1nc(CN(C)C(=O)N[C@H](C(=O)N[C@@H](Cc2ccccc2)C[C@H](O)[C@H](Cc2ccccc2)NC(=O)OCc2cncs2)C(C)C)cs1 [Ritonavir, (2S,3S,5S)-5(N-(N-((N-Methyl-N-((2-isopropyl-4-thiazoly)methyl)amino)carbonyl)-L-valinyl)amino)-2-(N-((5-thiazoly)methoxycarbonyl)amino)-1,6-diphenyl-3-hydroxhexane, reference compound]
Potential for Clinically Significant Interaction [1]: High (possibly favorable) (Ritonavir increases trough tipranavir concentrations; tipranavir expected to reduce ritonavir concentrations

Potential for Clinically Significant Interaction [1]: High (and unfavorable)
Compound: CC(C)(C)NC(=O)[C@@H]1CN(Cc2cccnc2)CCN1C[C@@H](O)C[C@@H](Cc1ccccc1)C(=O)N[C@H]1c2ccccc2C[C@H]1O [Indinavir]

Potential for Clinically Significant Interaction [1]: Uncertain
Compound: Cc1ccnc2c1NC(=O)c1cccnc1N2C1CC1 [Nevirapine]

Potential for Clinically Significant Interaction [1]: High (and unfavorable)
Compound: CC(C)CN(C[C@@H](O)[C@H](Cc1ccccc1)NC(=O)O[C@H]1CCOC1)S(=O)(=O)c1ccc(N)cc1 [Amprenavir]

Compound: C[C@H](Sc1nc(N)cc(Cl)n1)c1cc2ccoc2cn1 [PNU-142721]
Potential for Clinically Significant Interaction [1]: Uncertain

Compound: O=c1[nH]cnc2c1ncn2[C@H]1CC[C@@H](CO)O1 [ddI]
Potential for Clinically Significant Interaction [1]: Low

Compound: Nc1ccn([C@H]2CC[C@@H](CO)O2)c(=O)n1 [ddC]
Potential for Clinically Significant Interaction [1]: Low
